In publication PMC6269910 (Molecules, 2013):

Columns and labels:
[1] = test system: carrageenan-induced hind paw edema; test: Carrageenan-induced hind paw edema model; format: in vivo, mice
Protocol: Locally bred balb/c mice of both sexes (30-35 g) were purchased from the animal breeding laboratories of Inonu University ([…], Turkey). The animals were fed a standard pellet diet and water ad libitum in a temperature-controlled room. On the day before the treatments, food was withdrawn, but the animals were allowed free access of water. The allocation of animals to different groups was randomized, and the experiments were carried out under blind conditions. Mice used in the present study were cared for in accordance with the directory of the Inonu University Animal Care Unit, which applies the guidelines of the National Institutes of Health on laboratory animal welfare. Procedures involving animals and their care were conducted in conformity with international laws and policies and animal studies accepted by Inonu University Ethical Council (2011/A17). Test samples, suspended in a mixture of distilled water and 0.5% sodium carboxymethyl cellulose (CMC), were given orally to the animals. The control group animals received the same experimental handling as those of the test groups, except that the drug treatment was replaced with appropriate volumes of the dosing vehicle. […] For the preliminary activity screening, each test group was composed of four mice. […] Because of the daily changing circumstance, we used another control group for each experiment. For the determination of the effects on carrageenan-induced paw oedema, the modified method of Kasahara et al. was employed. One hour after the oral administration of either test sample or dosing vehicle, each mouse was injected with a freshly prepared (0.5 mg/25 μL) suspension of carrageenan (Sigma, St. Louis, MO, USA) in physiological saline (154 mM NaCl). The subplantar tissue of the right hind paw was the injection site for all mice. The contralateral paw (left hind paw) was injected with 25 μL saline solution as the internal control. […] The difference in footpad thickness between the right and left foot indicated the degree of inflammation for each mouse. The change in paw volume, either increase or decrease, was calculated and compared with the control group (dosing vehicle) and analyzed using statistical methods.

[2] = test system: acetic acid-induced abdominal constriction; test: Acetic acid-induced writhing (Koster) test; format: in vivo, mice; details: 100 mg/kg oral
Method in brief: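 Test samples in 0.5% CMC/water given orally to mice; vehicle controls. One hour later, 3% acetic acid (0.1 mL/10 g) i.p.; writhes counted for 10 min starting 5 min post-injection. Activity expressed as % change from writhing controls; ASA 200 mg/kg as reference.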

stomach = test: Gastric-ulcerogenic effect (ulcer score); format: in vivo, mice; details: 200 mg/kg p.o.; animals with lesions/animals
LPO = LPO (TBARS) level in liver, kidney, colon, brain; format: in vivo, mice; details: 72 h
Protocol: Tissue samples were homogenized with ice-cold 150 mM KCl for the determination of LPO and glutathione (GSH) levels. The LPO levels were assayed by monitoring TBARS formation as described above.

myeloperoxidase (MPO) = test: MPO activity in liver, kidney, colon, brain; format: in vivo, mice; details: 72 h
Protocol: MPO is an enzyme that is found predominantly in the azurophilic granules of polymorphonuclear leukocytes (PMN). […] MPO activity was measured in tissues in a procedure similar to that documented by […] et al.

[3] = test system: superoxide dismutase (SOD); test: SOD activity in liver, kidney, colon, brain; format: in vivo, mice; details: 72 h
Protocol: SOD is a major antioxidant enzyme found in cells, which protect cells from oxidative stress. SOD activity in the tissue samples was measured according to the previously described method.

[4] = test system: 60 human tumor cell lines; test: NCI60 in vitro cancer screen; format: cell-based; details: 10 µM; variety of cell lines
From the text: The selected compound N-(ethylcarbamothioyl)-4-[5-(4-methylphenyl)-3-(trifluoromethyl)-1H-pyrazol-1-yl]benzenesulfonamide (1a) was screened by the National Institutes of Health (NIH) for anticancer activity against 60 human tumor cell lines. Most of the compounds in the series of structures submitted include one or more functional groups that have been found troublesome to the development of successful drug candidates. In addition, the selection criteria guidance available at the following DTP web site: http://www.dtp.nci.nih.gov/docs/misc/common_files/guidelines.html. For NCI criteria, compounds, which reduce the growth of any one of the cell lines to approximately 32% or less, are passed on for evaluation in the full panel of cell lines over a 5-log dose range.
The methodology of the NCI60 in vitro cancer screen can be found on-line at http://dtp.nci.nih.gov/branches/btb/ivclsp.html and can be reviewed on their web site.

Compound: CCNC(=S)NS(=O)(=O)c1ccc(-n2nc(C(F)(F)F)cc2-c2ccc(C)cc2)cc1 [Compound 1a, N-(Ethylcarbamothioyl)-4-[5-(4-methylphenyl)-3-(trifluoromethyl)-1H-pyrazol-1-yl] benzenesulfonamide]
- Swelling in thickness ± SEM ([1]; 50 mg/kg per os, 90 min): 70.0 ± 6.5 × 10^−2 mm
- percent inhibitory activity ([1]; 50 mg/kg per os, 90 min): 2.7%
- Swelling in thickness ± SEM ([1]; 50 mg/kg per os, 180 min): 72.0 ± 5.1 × 10^−2 mm
- percent inhibitory activity ([1]; 50 mg/kg per os, 180 min): 21.7%
- Swelling in thickness ± SEM ([1]; 50 mg/kg per os, 270 min): 90.0 ± 9.3 × 10^−2 mm
- percent inhibitory activity ([1]; 50 mg/kg per os, 270 min): 25.6%
- Swelling in thickness ± SEM ([1]; 50 mg/kg per os, 360 min): 100.0 ± 6.5 × 10^−2 mm
- percent inhibitory activity ([1]; 50 mg/kg per os, 360 min): 22.4%
- Swelling in thickness ± SEM ([1]; 100 mg/kg per os, 90 min): 58.1 ± 6.6 × 10^−2 mm
- percent inhibitory activity ([1]; 100 mg/kg per os, 90 min): 19.4%
- Swelling in thickness ± SEM ([1]; 100 mg/kg per os, 180 min): 72.9 ± 11.9 × 10^−2 mm
- percent inhibitory activity ([1]; 100 mg/kg per os, 180 min): 19.7%
- Swelling in thickness ± SEM ([1]; 100 mg/kg per os, 270 min): 72.7 ± 16.7 × 10^−2 mm
- percent inhibitory activity ([1]; 100 mg/kg per os, 270 min): 39.5%
- Swelling in thickness ± SEM ([1]; 100 mg/kg per os, 360 min): 77.9 ± 11.7 × 10^−2 mm
- percent inhibitory activity ([1]; 100 mg/kg per os, 360 min): 39.7%
- Swelling in thickness ± SEM ([1]; 200 mg/kg per os, 90 min): 54.6 ± 7.9 × 10^−2 mm
- percent inhibitory activity ([1]; 200 mg/kg per os, 90 min): 25.0%
- Swelling in thickness ± SEM ([1]; 200 mg/kg per os, 180 min): 74.2 ± 8.2 × 10^−2 mm
- percent inhibitory activity ([1]; 200 mg/kg per os, 180 min): 19.3%
- Swelling in thickness ± SEM ([1]; 200 mg/kg per os, 270 min): 117.5 ± 9.8 × 10^−2 mm
- percent inhibitory activity ([1]; 200 mg/kg per os, 270 min): 2.9%
- Swelling in thickness ± SEM ([1]; 200 mg/kg per os, 360 min): 97.4 ± 5.6 × 10^−2 mm
- percent inhibitory activity ([1]; 200 mg/kg per os, 360 min): 24.5%
- anti-inflammatory activity (in words) ([1]; all doses, all measurement intervals): moderate-to-good
- Writhing test (% inh.) [2]: 67.8%
- Writhing test (Mean ± SEM) ([2]; writhings counted 10 min from 5 min after acetic acid): 5.6 ± 0.9
- Ulcer score (stomach): 0/5
- LPO (LPO; brain, 100 mg/kg oral): 8.36 ± 2.61 nmol/g tissue
- LPO (LPO; brain, 200 mg/kg oral): 9.40 ± 2.08 nmol/g tissue
- LPO (LPO; colon, 100 mg/kg oral): 8.66 ± 2.23 nmol/g tissue
- LPO (LPO; colon, 200 mg/kg oral): 11.04 ± 2.11 nmol/g tissue
- LPO (LPO; kidney, 100 mg/kg oral): 10.96 ± 2.01 nmol/g tissue
- LPO (LPO; kidney, 200 mg/kg oral): 12.56 ± 2.96 nmol/g tissue
- LPO (LPO; liver, 100 mg/kg oral): 9.78 ± 1.30 nmol/gtissue
- LPO (LPO; liver, 200 mg/kg oral): 13.72 ± 3.05 nmol/gtissue
- MPO (myeloperoxidase (MPO); brain, 100 mg/kg oral): 0.73 ± 0.32 U/gtissue
- MPO (myeloperoxidase (MPO); brain, 200 mg/kg oral): 1.95 ± 0.60 U/gtissue
- MPO (myeloperoxidase (MPO); colon, 100 mg/kg oral): 0.27 ± 0.13 U/gtissue
- MPO (myeloperoxidase (MPO); colon, 200 mg/kg oral): 0.38 ± 0.14 U/gtissue
- MPO (myeloperoxidase (MPO); kidney, 100 mg/kg oral): 3.18 ± 2.66 U/g tissue
- MPO (myeloperoxidase (MPO); kidney, 200 mg/kg oral): 4.59 ± 1.01 U/g tissue
- MPO (myeloperoxidase (MPO); liver, 100 mg/kg oral): 0.50 ± 0.28 U/gtissue
- MPO (myeloperoxidase (MPO); liver, 200 mg/kg oral): 0.15 ± 0.08 U/gtissue
- SOD ([3]; brain, 100 mg/kg oral): 19.17 ± 7.41 U/g tissue
- SOD ([3]; brain, 200 mg/kg oral): 19.22 ± 10.76 U/g tissue
- SOD ([3]; colon, 100 mg/kg oral): 16.56 ± 4.13 U/g tissue
- SOD ([3]; colon, 200 mg/kg oral): 21.17 ± 4.15 U/g tissue
- SOD ([3]; kidney, 100 mg/kg oral): 20.26 ± 8.71 U/g tissue
- SOD ([3]; kidney, 200 mg/kg oral): 15.37 ± 7.33 U/g tissue
- SOD ([3]; liver, 100 mg/kg oral): 21.15 ± 9.98 U/g tissue
- SOD ([3]; liver, 200 mg/kg oral): 11.72 ± 5.10 U/g tissue
- cell growth inhibition [4]: negligible
- melting point: 215 to 218 °C
